Results published in patent US20240398781A1, “SPIROCYCLIC CYCLIC MODULATORS OF CHOLESTEROL BIOSYNTHESIS AND THEIR USE FOR PROMOTING REMYELINATION” (GENENTECH, INC., priority 2021, published 2024).

Experiments:
EpiSC-derived OPCs = assay: In vitro phenotypic screening of OPCs (MBP staining, high-content imaging); format: cell-based, mouse; settings: Mus musculus, 72 h, percentage of MBP+ oligodendrocytes, 3 days, 0.5 nM to 1000 nM; read-out: OPC EC50
Procedure: To assess effects of treatments on OPCs, all treatments were assayed in two or more independent platings of epiblast stem cell-derived OPCs (EpiSC). EpiSC-derived OPCs were obtained using in vitro differentiation protocols and culture conditions described previously (Najm et al, 2011, Nature Methods). OPCs were expanded and frozen down in aliquots. OPCs were thawed into growth conditions for at least one passage before use in further assays.
EpiSC-derived OPCs were grown and expanded in poly-L-ornithine (PO) and laminin-coated flasks in N2B27 media (DMEM/F12 (Gibco), N2-MAX (R&D Systems), B-27 (ThermoFisher), and GlutaMax (Gibco)) supplemented with FGF2 ([…], R&D systems, 233-FB-025) and PDGF-AA ([…], R&D systems, 233-AA-050) before harvesting for experiments. The cells were seeded onto poly-L-ornithine or poly-D-lysine coated CellCarrier Ultra plates (PerkinElmer) coated with laminin (Sigma, L2020) at a density of 150,000/cm^2 in N2B27 media without growth factors. For dose-response testing, a 1000× compound stock in dimethyl sulphoxide (DMSO) was added to assay plates, resulting in 8-point dose curves with final concentrations between 1000 nM and 0.5 nM. Positive controls and DMSO vehicle controls were included in each assay plate. Cells were incubated under standard conditions (37° C., 5% CO2) for 3 days and fixed with 4% paraformaldehyde (PFA) in phosphate buffered saline (PBS) for 20 min. Fixed plates were washed with PBS, permeabilized with 0.1% Triton X-100, and blocked with 10% donkey serum (v/v) in PBS for 40 min. Then, cells were labelled with MBP antibodies (Abcam, ab7349; 1:200) for 2 h at room temperature, washed with PBS, and stained with Alexa Fluor conjugated secondary antibodies (1:500) for 45 min. Nuclei were visualized by DAPI staining (Sigma; 1 μg/ml), followed by further PBS washes.
Cells and cell culture plates were imaged on the Operetta High Content Imaging and Analysis system (PerkinElmer). Analysis (PerkinElmer Harmony and Columbus software) began by identifying intact nuclei stained by DAPI. The peri-nuclear region of each cell was then cross-referenced with the mature myelin protein (MBP) stain to identify oligodendrocyte nuclei, and from this the percentage of oligodendrocytes was calculated. EC50 values were calculated using The Levenberg-Marquardt algorithm to fit a Hill equation to dose-response data (0.5 nM to 1000 nM).

[1] = tested on: EBP (zymostenol accumulation in EpiSC-derived OPCs); assay: GC/MS-based sterol profiling, zymostenol accumulation in OPCs; format: cell-based, mouse; settings: Mus musculus, 24 h, EpiSC-derived OPCs, 24 hr treatment, 8 doses from 0.15 nM to 333 nM; read-out: Zymostenol GCMS EC50
Procedure: To assess effects of treatments on OPCs, all treatments were assayed in two or more independent platings of epiblast stem cell-derived OPCs ([…]-derived OPCs were obtained using in vitro differentiation protocols and culture conditions described previously (Najm et al, 2011, Nature Methods). OPCs were expanded and frozen down in aliquots. OPCs were thawed into growth conditions for at least one passage before use in further assays. Sterols were monitored using a modified Folch wash protocol (Hubler et al, 2018, Nature). EpiSC-derived OPCs were plated at 100,000 cells per well in PO- and laminin-coated 96-well plates in N2B27 media without growth factors. After 24 hours, cells were rinsed with saline and plates were frozen. Cholesterol-d7 standard was then added to each well before drying under nitrogen stream and derivatization with 55 μl of bis(trimethylsilyl) trifluoroacetamide. After derivatization, 2 μl were analyzed by gas chromatography/mass spectrometry using an Agilent 5973 Network Mass Selective Detector equipped with a 6890 gas chromatograph system and a HP-5MS capillary column (30 m×0.25 mm×0.25 mm). Samples were analyzed in full scan mode using electron impact ionization; ion fragment peaks were integrated to calculate sterol abundance, and quantitation was relative to cholesterol-d7. […] All standards were obtained from Avanti Polar Lipids unless otherwise indicated. Calibration curves were generated by injecting varying concentrations of sterol standards and maintaining a fixed amount of cholesterol-D7. For normalized zymostenol accumulation results, the total amount of zymostenol measured after drug treatment was divided by the total amount of zymostenol accumulated after 24 hr treatment with 100 nM positive control reference.

[2] = molecular target: human emopamil binding protein and human 7-dehydrocholesterol reductase co-expressing cells (hEBP-DHCR7 membrane) (Homo sapiens (Human), UniProt Q15125); assay: Radioligand filter binding assay on hEBP-DHCR7 membrane; settings: [3H]-(S)-6-(2-Methyl-3-(6-(trifluoromethyl)pyridin-3-yl)propyl)-2-thia-6-azaspiro[3.4]octane 2,2-dioxide radioligand, HEK293 membrane co-expressing hEBP and hDHCR7
Sequence of human emopamil binding protein and human 7-dehydrocholesterol reductase co-expressing cells (hEBP-DHCR7 membrane) (Q15125 whole entry): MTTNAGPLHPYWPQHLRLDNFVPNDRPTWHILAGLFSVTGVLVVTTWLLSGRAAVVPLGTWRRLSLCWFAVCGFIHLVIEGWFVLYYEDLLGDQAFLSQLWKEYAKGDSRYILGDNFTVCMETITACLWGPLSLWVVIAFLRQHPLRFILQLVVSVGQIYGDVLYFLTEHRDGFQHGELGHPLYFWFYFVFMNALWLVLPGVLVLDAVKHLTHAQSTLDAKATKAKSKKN
Procedure: Membrane Preparation: human emopamil binding protein and human 7-dehydrocholesterol reductase co-expressing cells were generated by transient transfecting host human embryonic kidney (HEK) 293 cells with 2 DNA constructs containing each protein's coding sequence. Cells were suspension cultured at 37° C. with 5% CO2 in […] 293 Expression Medium (Thermofisher). Whole cell membrane was prepared by harvesting the cell pellet, adding cold membrane buffer (50 mM Tris, pH7.5, lx Roche COMPLETE EDTA-free protease inhibitor cocktail) 10 times volume of the cell pellets weight, lysing cell pellet on ice by using Dounce homogenizer, spinning at 200 g 4° C. for 15 min, collecting supernatant and spinning again at 25000 g 4° C. for 50 min, transferring pellet to Dounce homogenizer, re-suspending pellet by homogenizing in membrane buffer on ice to reach ˜25 mg/mL, then keeping whole cell membrane aliquots at −80° C.
Compounds were prepared in a 96-well U bottom plate using an Echo550 machine and 10 mM compound DMSO stock solution, followed by an 8-dose 5-fold serial dilutions protocol with final testing compound concentration ranging from 0.06 to 5000 nM, with DMSO back fill to 100 nL/well and n=2. […] The UniFilter-96 GF/B plates were pre-treated by adding 50 μl/well of 0.3% (v/v) PEI to UniFilter-96 GF/B plates. The plates were sealed and incubated at 4° C. for 3 hrs. Then, the plates were washed with ice-cold assay buffer 3 times. The radioligand binding assay was prepared by adding assay buffer diluted hEBP-DHCR7 membrane at 66.7 μg/ml×150 μl/well into the 96-well compound plate to reach 10 μg membrane per well. Then, the assay buffer diluted [3H]—(S)-6-(2-Methyl-3-(6-(trifluoromethyl)pyridin-3-yl)propyl)-2-thia-6-azaspiro[3.4] octane 2,2-dioxide was added at 25 nM×50 μl/well. Following this, the plate was centrifuged at 1000 rpm for 30 secs. The plate was then sealed and agitated at 600 rpm at 22° C. for 5 min, and then incubated at 22° C. for 3 hrs. The incubation was stopped by transferring the binding solution to the pre-treated UniFilter-96 GF/B plate, vacuum filtrated, and then washed four times with ice-cold assay buffer. Following this, the plates were dried at 37° C. for 45 min. The plates were then sealed at the bottom. 40 μl/well of scintillation cocktail was added to the plates. A MicroBeta2 microplate counter was then used to read the plate and analyze the data. For reference and test compounds, the results are expressed as % Inhibition, using the normalization equation: N=100−100×(U−C2)/(C1−C2), where U is the unknown value, C1 is the average of high controls, and C2 is the average value of low controls. The IC50 was determined by fitting percentage of inhibition as a function of compound concentrations with Hill equation using XLfit. Results are expressed as hEBP-DHCR7 Ki (uM) in Table 4. Ki was calculated as described above. The asterix (*) indicates an isolated isomer or isolated group of isomers, but that the stereochemistry has not been assigned.

EC50 (EpiSC-derived OPCs) [nM]	EC50 [1] [nM]	Ki [2] [nM]	Compound
18	9.4	–	O=S1(=O)CC2(CCN([C@H]3CC[C@H](c4cnc(C(F)(F)F)c(F)c4)CC3)C2)C1 [Compound 72A, 6-((1r,4r)-4-(5-fluoro-6-(trifluoromethyl)pyridin-3-yl)cyclohexyl)-2-thia-6-azaspiro[3.4]octane 2,2-dioxide]
–	14	9.6	O=S1(=O)CC2(CCN([C@H]3CC[C@@H](c4ncc(C(F)(F)F)cc4Cl)CC3)C2)C1 [Compound 48B, 6-((1s,4s)-4-(3-chloro-5-(trifluoromethyl)pyridin-2-yl)cyclohexyl)-2-thia-6-azaspiro[3.4]octane 2,2-dioxide]
–	42	1290	O=S1(=O)CC2(CCN([C@H]3CC[C@H](c4ccnc(C(F)(F)F)c4)CC3)CC2)C1 [Compound 90B, 7-((1r,4r)-4-(2-(trifluoromethyl)pyridin-4-yl)cyclohexyl)-2-thia-7-azaspiro[3.5]nonane 2,2-dioxide]
–	11	67	O=S1(=O)CC2(CCN([C@H]3CC[C@H](c4ncc(C(F)(F)F)cc4F)CC3)CC2)C1 [Compound 80A, 7-((1r,4r)-4-(3-Fluoro-5-(trifluoromethyl)pyridin-2-yl)cyclohexyl)-2-thia-7-azaspiro[3.5] nonane 2,2-dioxide]
–	2.8	8	CC(C)c1nc(C(F)(F)F)ccc1[C@H]1CC[C@@H](N2CCC3(C2)CS(=O)(=O)C3)CC1 [Compound 65B, 6-((1s,4s)-4-(2-isopropyl-6-(trifluoromethyl)pyridin-3-yl)cyclohexyl)-2-thia-6-azaspiro[3.4]octane 2,2-dioxide]
–	45	23	O=S1(=O)CC2(CCN([C@H]3CC[C@@H](c4cccc(C(F)(F)F)n4)CC3)C2)C1 [Compound 62A, 6-((1s,4s)-4-(6-(trifluoromethyl)pyridin-2-yl)cyclohexyl)-2-thia-6-azaspiro[3.4]octane 2,2-dioxide]
–	289	66	O=S1(=O)CC2(CCN([C@H]3CC[C@@H](c4cncc(C(F)(F)F)c4)CC3)C2)C1 [Compound 63B, 6-((1s,4s)-4-(5-(trifluoromethyl)pyridin-3-yl)cyclohexyl)-2-thia-6-azaspiro[3.4]octane 2,2-dioxide]
–	19	6.7	O=S1(=O)CC2(CCN([C@H]3CC[C@@H](c4ccc(F)c(F)c4)CC3)C2)C1 [Compound 70B, 6-((1s,4s)-4-(3,4-difluorophenyl)cyclohexyl)-2-thia-6-azaspiro[3.4]octane 2,2-dioxide]
–	3.2	12	CCc1nc(C(F)(F)F)ccc1[C@H]1CC[C@@H](N2CCC3(C2)CS(=O)(=O)C3)CC1 [Compound 64B, 6-((1s,4s)-4-(2-ethyl-6-(trifluoromethyl)pyridin-3-yl)cyclohexyl)-2-thia-6-azaspiro[3.4]octane 2,2-dioxide]

The remaining lines, values behind:

Compound	EC50 (EpiSC-derived OPCs) [nM]	EC50 [1] [nM]	Ki [2] [nM]
O=S1(=O)CCC2(CCN([C@H]3CC[C@@H](c4ccc(C(F)(F)F)cn4)CC3)C2)CC1 [84A*, 2-((1r,4r)-4-(5-(Trifluoromethyl)pyridin-2-yl)cyclohexyl)-8-thia-2-azaspiro[4.5]decane 8,8-dioxide]	–	100	310
O=S1(=O)CC2(CCN([C@@H]3CCCN(c4ccc(C(F)(F)F)nc4)C3)C2)C1 (single isomer, unassigned) [66A*]	–	> 330	1980
CC(C)[C@@H]1C[C@H](N2CCC3(C2)CS(=O)(=O)C3)CCN1c1ccc(C(F)(F)F)nc1 (stereo in doubt) [82D*, 6-((2S,4R)-2-isopropyl-1-(6-(trifluoromethyl)pyridin-3-yl)piperidin-4-yl)-2-thia-6-azaspiro[3.4]octane 2,2-dioxide]	–	> 330	100
CC(C)n1nc(-c2ccc(C(F)(F)F)cc2)nc1[C@@H]1CC[C@H](N2CCC3(C2)CS(=O)(=O)C3)C1 (single isomer, unassigned) [53C*]	–	1.1	10
CC(C)n1nc(C(F)(F)F)cc1[C@@H]1CCC[C@@H](N2CCC3(C2)CS(=O)(=O)C3)C1 (single isomer, unassigned) [61A*]	–	> 330	80
O=S1(=O)CC[C@]2(CCCN([C@H]3CC[C@H](c4cc(C(F)(F)F)nn4C4CC4)CC3)C2)C1 (single isomer, unassigned) [69D*]	–	58	50
O=S1(=O)CC2(CCN([C@H]3CC[C@H](c4ccc(C(F)(F)F)nc4)CC3)CC2)C1 [81A*, 7-((1r,4r)-4-(6-(Trifluoromethyl)pyridin-3-yl)cyclohexyl)-2-thia-7-azaspiro[3.5]nonane 2,2-dioxide]	–	36	85
O=S1(=O)CC[C@@]2(CCCN([C@H]3CC[C@H](c4cc(C(F)(F)F)nn4C4CC4)CC3)C2)C1 (single isomer, unassigned) [69B*]	–	23	35
CC(C)n1nc(C(F)(F)F)cc1[C@@H]1CCC[C@@H](N2CCC3(CC2)CS(=O)(=O)C3)C1 (single isomer, unassigned) [78A*]	–	> 330	71
